Data: patent EP4745135A1 (Gluetacs Therapeutics (Shanghai) Co., Ltd., priority 2023, dated 2025)

How the values were obtained:
[1] = target: T1, IKZF3 (Homo sapiens, UniProt Q96SW2+Q9UKT9); assay: Western blot, degradation of substrate protein in hPBMCs; type: cell-based
T1 construct: effects of the compounds of the present disclosure on the expression of target proteins in cells; endogenous in cells; host or cells: human PBMCs (Milecell Biotechnologies)

[2] = target: T2, IKZF2 (Homo sapiens, UniProt Q96SW2+Q9UKS7); assay: as above; type: cell-based
T2 construct: effects of the compounds of the present disclosure on the expression of target proteins in cells; endogenous in cells; host or cells: human PBMCs (Milecell Biotechnologies)
T2 sequence (Q9UKS7 whole entry): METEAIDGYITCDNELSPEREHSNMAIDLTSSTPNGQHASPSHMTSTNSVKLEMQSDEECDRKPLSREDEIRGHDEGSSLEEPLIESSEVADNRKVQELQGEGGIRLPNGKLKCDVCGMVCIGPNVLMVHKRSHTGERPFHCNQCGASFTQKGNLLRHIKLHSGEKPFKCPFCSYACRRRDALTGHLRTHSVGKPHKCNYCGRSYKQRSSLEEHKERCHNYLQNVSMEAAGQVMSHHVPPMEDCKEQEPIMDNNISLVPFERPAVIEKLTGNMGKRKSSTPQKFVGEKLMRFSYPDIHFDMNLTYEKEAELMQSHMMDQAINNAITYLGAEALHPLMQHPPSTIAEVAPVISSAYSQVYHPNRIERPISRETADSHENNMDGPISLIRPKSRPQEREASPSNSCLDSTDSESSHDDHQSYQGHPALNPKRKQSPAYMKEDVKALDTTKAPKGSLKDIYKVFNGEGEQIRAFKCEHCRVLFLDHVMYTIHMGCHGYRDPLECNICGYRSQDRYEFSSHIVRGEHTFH
T2 sequence (Q96SW2 whole entry): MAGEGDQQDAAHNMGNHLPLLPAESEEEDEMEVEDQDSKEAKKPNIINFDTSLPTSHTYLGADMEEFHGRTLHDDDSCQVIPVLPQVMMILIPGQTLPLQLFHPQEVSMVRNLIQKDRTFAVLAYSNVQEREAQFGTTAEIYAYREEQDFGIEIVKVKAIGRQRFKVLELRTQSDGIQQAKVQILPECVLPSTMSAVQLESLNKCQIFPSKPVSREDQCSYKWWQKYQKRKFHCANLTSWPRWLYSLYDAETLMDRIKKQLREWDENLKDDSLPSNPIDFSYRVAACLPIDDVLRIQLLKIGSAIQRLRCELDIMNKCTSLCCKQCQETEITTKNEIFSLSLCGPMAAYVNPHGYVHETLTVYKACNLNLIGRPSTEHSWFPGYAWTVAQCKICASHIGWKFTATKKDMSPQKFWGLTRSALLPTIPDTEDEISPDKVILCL
T2 sequence (Q16531 whole entry partner): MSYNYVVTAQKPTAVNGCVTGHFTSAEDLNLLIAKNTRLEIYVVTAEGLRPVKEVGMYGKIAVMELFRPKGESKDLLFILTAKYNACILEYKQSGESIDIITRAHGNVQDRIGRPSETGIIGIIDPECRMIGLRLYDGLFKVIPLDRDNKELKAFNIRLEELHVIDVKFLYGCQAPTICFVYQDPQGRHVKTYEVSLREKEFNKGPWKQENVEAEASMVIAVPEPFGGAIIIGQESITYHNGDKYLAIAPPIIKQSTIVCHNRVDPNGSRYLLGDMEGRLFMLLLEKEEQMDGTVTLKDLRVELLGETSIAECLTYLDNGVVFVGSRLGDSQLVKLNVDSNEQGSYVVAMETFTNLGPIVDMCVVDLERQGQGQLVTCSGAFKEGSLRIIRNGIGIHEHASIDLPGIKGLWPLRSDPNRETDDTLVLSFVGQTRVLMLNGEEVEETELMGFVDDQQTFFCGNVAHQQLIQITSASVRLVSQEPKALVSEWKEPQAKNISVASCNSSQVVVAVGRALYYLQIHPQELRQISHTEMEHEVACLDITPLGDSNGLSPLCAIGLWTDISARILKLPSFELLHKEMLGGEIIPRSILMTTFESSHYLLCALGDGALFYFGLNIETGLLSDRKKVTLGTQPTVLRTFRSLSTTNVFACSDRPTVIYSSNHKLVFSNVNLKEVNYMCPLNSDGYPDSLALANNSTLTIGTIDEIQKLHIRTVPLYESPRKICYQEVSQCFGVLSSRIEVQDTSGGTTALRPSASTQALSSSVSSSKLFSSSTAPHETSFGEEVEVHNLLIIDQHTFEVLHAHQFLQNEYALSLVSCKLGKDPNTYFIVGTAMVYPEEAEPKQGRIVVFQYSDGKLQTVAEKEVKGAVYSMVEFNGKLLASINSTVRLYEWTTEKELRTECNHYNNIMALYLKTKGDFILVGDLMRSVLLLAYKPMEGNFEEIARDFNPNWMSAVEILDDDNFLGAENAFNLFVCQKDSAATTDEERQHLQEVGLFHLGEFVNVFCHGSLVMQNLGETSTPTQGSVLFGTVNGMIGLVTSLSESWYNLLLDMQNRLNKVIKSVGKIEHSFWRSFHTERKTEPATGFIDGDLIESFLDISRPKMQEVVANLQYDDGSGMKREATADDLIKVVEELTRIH

[3] = target: T3, IKZF1 (Homo sapiens, UniProt Q13422+Q96SW2); assay: as above; type: cell-based
T3 construct: effects of the compounds of the present disclosure on the expression of target proteins in cells; endogenous in cells; host or cells: human PBMCs (Milecell Biotechnologies)
T3 sequence (Q13422 whole entry): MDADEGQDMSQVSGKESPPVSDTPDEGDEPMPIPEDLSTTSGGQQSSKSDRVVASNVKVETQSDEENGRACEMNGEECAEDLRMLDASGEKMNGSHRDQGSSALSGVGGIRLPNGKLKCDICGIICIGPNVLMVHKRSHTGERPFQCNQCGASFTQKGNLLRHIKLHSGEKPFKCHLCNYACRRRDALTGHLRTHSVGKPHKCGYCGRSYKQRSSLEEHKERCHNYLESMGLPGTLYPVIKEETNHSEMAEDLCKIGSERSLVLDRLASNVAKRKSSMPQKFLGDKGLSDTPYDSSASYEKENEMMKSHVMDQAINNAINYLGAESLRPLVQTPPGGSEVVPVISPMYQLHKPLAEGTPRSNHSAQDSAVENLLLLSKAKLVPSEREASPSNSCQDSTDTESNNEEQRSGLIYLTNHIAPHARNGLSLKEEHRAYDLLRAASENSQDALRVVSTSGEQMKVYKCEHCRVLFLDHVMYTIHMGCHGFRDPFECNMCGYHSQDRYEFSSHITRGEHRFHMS
T3 sequence (Q96SW2 whole entry): as the sequence (Q96SW2 whole entry) above
T3 sequence (Q16531 whole entry partner): as the sequence (Q16531 whole entry partner) above

[4] = target: T4, CK1α (Homo sapiens, UniProt P48729+Q96SW2); assay: as above; type: cell-based
T4 construct: effects of the compounds of the present disclosure on the expression of target proteins in cells; endogenous in cells; host or cells: human PBMCs (Milecell Biotechnologies)
T4 sequence (P48729 whole entry): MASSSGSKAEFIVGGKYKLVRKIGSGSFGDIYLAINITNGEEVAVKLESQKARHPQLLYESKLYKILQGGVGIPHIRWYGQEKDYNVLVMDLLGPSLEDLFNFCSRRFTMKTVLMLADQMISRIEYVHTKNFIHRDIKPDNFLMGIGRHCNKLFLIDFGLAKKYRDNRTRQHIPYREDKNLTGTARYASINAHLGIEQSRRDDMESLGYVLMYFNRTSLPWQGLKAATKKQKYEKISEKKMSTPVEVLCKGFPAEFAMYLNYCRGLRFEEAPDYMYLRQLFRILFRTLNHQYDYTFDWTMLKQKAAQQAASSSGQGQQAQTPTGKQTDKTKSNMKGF
T4 sequence (Q96SW2 whole entry): as the sequence (Q96SW2 whole entry) above
T4 sequence (Q16531 whole entry partner): as the sequence (Q16531 whole entry partner) above

[5] = target: T5, WEE1 (Homo sapiens, UniProt P30291+Q96SW2); assay: as above; type: cell-based
T5 construct: effects of the compounds of the present disclosure on the expression of target proteins in cells; endogenous in cells; host or cells: human PBMCs (Milecell Biotechnologies)
T5 sequence (P30291 whole entry): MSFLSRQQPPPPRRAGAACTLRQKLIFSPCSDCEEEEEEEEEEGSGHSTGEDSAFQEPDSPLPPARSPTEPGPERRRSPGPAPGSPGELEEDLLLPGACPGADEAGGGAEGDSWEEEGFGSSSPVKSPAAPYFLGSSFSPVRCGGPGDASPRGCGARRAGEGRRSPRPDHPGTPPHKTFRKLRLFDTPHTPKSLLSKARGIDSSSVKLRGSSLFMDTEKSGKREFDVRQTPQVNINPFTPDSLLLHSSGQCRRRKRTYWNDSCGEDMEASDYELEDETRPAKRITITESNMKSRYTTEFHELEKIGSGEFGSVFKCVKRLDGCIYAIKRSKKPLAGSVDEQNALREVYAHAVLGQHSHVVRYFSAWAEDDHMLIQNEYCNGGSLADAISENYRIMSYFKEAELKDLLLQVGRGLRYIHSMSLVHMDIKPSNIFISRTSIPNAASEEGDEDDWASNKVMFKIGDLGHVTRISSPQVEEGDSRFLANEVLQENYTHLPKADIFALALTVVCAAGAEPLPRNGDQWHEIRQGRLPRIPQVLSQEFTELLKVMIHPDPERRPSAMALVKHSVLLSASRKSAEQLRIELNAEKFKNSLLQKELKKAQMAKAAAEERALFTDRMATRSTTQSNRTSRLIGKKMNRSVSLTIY
T5 sequence (Q96SW2 whole entry): as the sequence (Q96SW2 whole entry) above
T5 sequence (Q16531 whole entry partner): as the sequence (Q16531 whole entry partner) above

[6] = test system: GSPT1; assay: as above; type: cell-based, Human
[7] = target: T6, human Cereblon WT GST-tagged protein (Homo sapiens, UniProt Q96SW2); assay: CRBN-binding affinity, HTRF (CEREBLON BINDING kit); details: for inhibition at 0.5 µM: read-out: Inhibition Rate at 0.5 µM (%); for inhibition at 2 µM: read-out: Inhibition Rate at 2 µM (%); for IC50: CRBN binding, HTRF, 3 hours at room temperature, read-out: HTRF IC50
T6 construct: purchased CISBIO 64BDCRBNPEH
T6 sequence (Q96SW2 whole entry): as the sequence (Q96SW2 whole entry) above

[8] = Western blot, 24 hours of compound treatment, compounds tested at 50 nM and 500 nM (concentration for the table not stated)
[9] = 24 hours treatment, compounds at 50 nM and 500 nM (concentration behind the class not stated)

T1 sequence (Q9UKT9 whole entry): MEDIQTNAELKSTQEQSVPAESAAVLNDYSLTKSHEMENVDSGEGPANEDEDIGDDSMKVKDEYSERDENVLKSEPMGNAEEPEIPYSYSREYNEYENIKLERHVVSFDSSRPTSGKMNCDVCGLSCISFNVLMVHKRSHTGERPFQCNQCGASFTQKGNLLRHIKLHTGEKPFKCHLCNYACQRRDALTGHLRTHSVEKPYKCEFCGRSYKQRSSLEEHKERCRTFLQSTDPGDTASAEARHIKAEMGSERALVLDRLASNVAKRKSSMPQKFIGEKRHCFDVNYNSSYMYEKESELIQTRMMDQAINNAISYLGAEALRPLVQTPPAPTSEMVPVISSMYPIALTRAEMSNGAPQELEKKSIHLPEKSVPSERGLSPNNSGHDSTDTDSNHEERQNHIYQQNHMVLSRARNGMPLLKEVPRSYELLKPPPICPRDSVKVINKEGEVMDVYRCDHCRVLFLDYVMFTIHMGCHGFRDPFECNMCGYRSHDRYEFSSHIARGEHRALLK
T1 sequence (Q96SW2 whole entry): as the sequence (Q96SW2 whole entry) above
T1 sequence (Q16531 whole entry partner): as the sequence (Q16531 whole entry partner) above

Structure (SMILES) | IKZF3 substrate protein remaining % [1, 8] | IKZF2 substrate protein remaining % [2, 8] | IKZF 1 substrate protein remaining % [3, 8] | CK1α substrate protein remaining % [4, 8] | Wee1 substrate protein remaining % [5, 8] | GSPT1 substrate protein remaining % [6, 8] | inhibition at 0.5 µM [7] | inhibition at 2 µM [7] | IKZF3 substrate protein remaining % [1, 9] | IKZF2 substrate protein remaining % [2, 9] | IKZF 1 substrate protein remaining % [3, 9] | CK1α substrate protein remaining % [4, 9] | Wee1 substrate protein remaining % [5, 9] | GSPT1 substrate protein remaining % [6, 9] | IC50 [7]
O=C1CCC(N2Cc3cc(CN4CCC(c5ccc(Br)cc5)CC4)ccc3C2=S)C(=O)N1 (stereo not shown) [GT-08618, 3-(5-((4-(4-bromophenyl)piperidin-1-yl)methyl)-1-thioxoisoindolin-2-yl)piperidine-2,6-dione] | B (80%< substrate protein remaining %≤ 100%) | B (80%< substrate protein remaining %≤ 100%) | B (80%< substrate protein remaining %≤ 100%) | B (80%< substrate protein remaining %≤ 100%) | B (80%< substrate protein remaining %≤ 100%) | A (0% ≤ substrate protein remaining % ≤ 80%) | 30 to 40% | 60 to 80% | – | – | – | – | – | – | –
O=C1CCC(N2Cc3cc(CN4CCN(c5ccc(F)c(F)c5)CC4)ccc3C2=S)C(=O)N1 (stereo not shown) [GT-08627, 3-(5-((4-(3,4-difluorophenyl)piperazin-1-yl)methyl)-1-thioxoisoindolin-2-yl)piperidine-2,6-dione] | B (80%< substrate protein remaining %≤ 100%) | B (80%< substrate protein remaining %≤ 100%) | B (80%< substrate protein remaining %≤ 100%) | B (80%< substrate protein remaining %≤ 100%) | B (80%< substrate protein remaining %≤ 100%) | A (0% ≤ substrate protein remaining % ≤ 80%) | 60 to 80% | 80 to 100% | – | – | – | – | – | – | –
O=C1CCC(N2Cc3cc(CO)ccc3C2=S)C(=O)N1 (stereo not shown) [GT-06977, 3-(5-(hydroxymethyl)-1-thioxoisoindolin-2-yl)piperidine-2,6-dione] | – | – | – | – | – | – | – | – | A (0% ≤ substrate protein remaining % ≤ 80%) | B (80%< substrate protein remaining %≤ 100%) | B (80%< substrate protein remaining %≤ 100%) | B (80%< substrate protein remaining %≤ 100%) | A (0% ≤ substrate protein remaining % ≤ 80%) | B (80%< substrate protein remaining %≤ 100%) | < 100 nM
O=C1CCC(N2Cc3c(CN4CCN(c5ccc(Cl)cn5)CC4)cccc3C2=S)C(=O)N1 (stereo not shown) [GT-08694, 3-(4-((4-(5-chloropyridin-2-yl)piperazin-1-yl)methyl)-1-thioxoisoindolin-2-yl)piperidine-2,6-dione] | B (80%< substrate protein remaining %≤ 100%) | B (80%< substrate protein remaining %≤ 100%) | B (80%< substrate protein remaining %≤ 100%) | B (80%< substrate protein remaining %≤ 100%) | A (0% ≤ substrate protein remaining % ≤ 80%) | A (0% ≤ substrate protein remaining % ≤ 80%) | 40 to 53% | 60 to 80% | – | – | – | – | – | – | –
O=C1CCC(N2Cc3cc(CN4CCC(c5noc6cc(F)ccc56)CC4)ccc3C2=S)C(=O)N1 (stereo not shown) [GT-05089, 3-(5-((4-(6-fluorobenzo[d]isoxazol-3-yl)piperidin-1-yl)methyl)-1-thioxoisoindolin-2-yl)piperidine-2,6-dione] | B (80%< substrate protein remaining %≤ 100%) | B (80%< substrate protein remaining %≤ 100%) | B (80%< substrate protein remaining %≤ 100%) | B (80%< substrate protein remaining %≤ 100%) | B (80%< substrate protein remaining %≤ 100%) | A (0% ≤ substrate protein remaining % ≤ 80%) | – | – | – | – | – | – | – | – | < 100 nM
CC1(C)CCC(CN2C3CC2CN(Cc2cccc4c2CN(C2CCC(=O)NC2=O)C4=S)C3)=C(c2ccc(Cl)cc2)C1 (stereo not shown) [GT-08271, 3-(4-((6-((4'-chloro-5,5-dimethyl-3,4,5,6-tetrahydro-[1,1'-biphenyl]-2-yl)methyl)-3,6-diazabicyclo[3.1.1]heptan-3-yl)methyl)-1-thioxoisoindolin-2-yl)piperidine-2,6-dione] | B (80%< substrate protein remaining %≤ 100%) | B (80%< substrate protein remaining %≤ 100%) | B (80%< substrate protein remaining %≤ 100%) | A (0% ≤ substrate protein remaining % ≤ 80%) | A (0% ≤ substrate protein remaining % ≤ 80%) | A (0% ≤ substrate protein remaining % ≤ 80%) | 30 to 40% | 60 to 80% | – | – | – | – | – | – | –
O=C1CCC(N2Cc3c(CN4CCN(c5cncc(Cl)c5Cl)CC4)cccc3C2=S)C(=O)N1 (stereo not shown) [GT-08724, 3-(4-((4-(4,5-dichloropyridin-3-yl)piperazin-1-yl)methyl)-1-thioxoisoindolin-2-yl)piperidine-2,6-dione] | B (80%< substrate protein remaining %≤ 100%) | B (80%< substrate protein remaining %≤ 100%) | B (80%< substrate protein remaining %≤ 100%) | B (80%< substrate protein remaining %≤ 100%) | A (0% ≤ substrate protein remaining % ≤ 80%) | B (80%< substrate protein remaining %≤ 100%) | 60 to 80% | 80 to 100% | – | – | – | – | – | – | –
O=C1CCC(N2Cc3c(CN4CCN(c5ccncc5Br)CC4)cccc3C2=S)C(=O)N1 (stereo not shown) [GT-08729, 3-(4-((4-(3-bromopyridin-4-yl)piperazin-1-yl)methyl)-1-thioxoisoindolin-2-yl)piperidine-2,6-dione] | B (80%< substrate protein remaining %≤ 100%) | B (80%< substrate protein remaining %≤ 100%) | B (80%< substrate protein remaining %≤ 100%) | B (80%< substrate protein remaining %≤ 100%) | A (0% ≤ substrate protein remaining % ≤ 80%) | B (80%< substrate protein remaining %≤ 100%) | 60 to 80% | 80 to 100% | – | – | – | – | – | – | –
CC1(C)CCC(CN2C3CCC2CN(Cc2ccc4c(c2)CN(C2CCC(=O)NC2=O)C4=S)C3)=C(c2ccc(Cl)cc2)C1 (stereo not shown) [GT-08162, 3-(5-((8-((4'-chloro-5,5-dimethyl-3,4,5,6-tetrahydro-[1,1'-biphenyl]-2-yl)methyl)-3,8-diazabicyclo[3.2.1]octan-3-yl)methyl)-1-thioxoisoindolin-2-yl)piperidine-2,6-dione] | – | – | – | – | – | – | 30 to 40% | 60 to 80% | B (80%< substrate protein remaining %≤ 100%) | B (80%< substrate protein remaining %≤ 100%) | B (80%< substrate protein remaining %≤ 100%) | B (80%< substrate protein remaining %≤ 100%) | A (0% ≤ substrate protein remaining % ≤ 80%) | B (80%< substrate protein remaining %≤ 100%) | –
O=C1CCC(N2Cc3cc(CN4CCN(c5ncnc6sc7c(c56)CCC7)CC4)ccc3C2=S)C(=O)N1 (stereo not shown) [GT-09301, 3-(5-((4-(6,7-dihydro-5H-cyclopenta[4,5]thieno[2,3-d]pyrimidin-4-yl)piperazin-1-yl)methyl)-1-thioxoisoindolin-2-yl)piperidine-2,6-dione] | – | – | – | – | – | – | 60 to 80% | 80 to 100% | A (0% ≤ substrate protein remaining % ≤ 80%) | A (0% ≤ substrate protein remaining % ≤ 80%) | A (0% ≤ substrate protein remaining % ≤ 80%) | B (80%< substrate protein remaining %≤ 100%) | B (80%< substrate protein remaining %≤ 100%) | B (80%< substrate protein remaining %≤ 100%) | –
O=C1CCC(N2Cc3c(CN4CCN(c5ccc(F)cc5)CC4)cccc3C2=S)C(=O)N1 (stereo not shown) [GT-08264, 3-(4-((4-(4-fluorophenyl)piperazin-1-yl)methyl)-1-thioxoisoindolin-2-yl)piperidine-2,6-dione] | A (0% ≤ substrate protein remaining % ≤ 80%) | B (80%< substrate protein remaining %≤ 100%) | B (80%< substrate protein remaining %≤ 100%) | A (0% ≤ substrate protein remaining % ≤ 80%) | A (0% ≤ substrate protein remaining % ≤ 80%) | A (0% ≤ substrate protein remaining % ≤ 80%) | 40 to 53% | 80 to 100% | – | – | – | – | – | – | –
O=C1CCC(N2Cc3cc(CN4CCN(c5ncccc5Cl)CC4)ccc3C2=S)C(=O)N1 (stereo not shown) [GT-09219, 3-(5-((4-(3-chloropyridin-2-yl)piperazin-1-yl)methyl)-1-thioxoisoindolin-2-yl)piperidine-2,6-dione] | B (80%< substrate protein remaining %≤ 100%) | A (0% ≤ substrate protein remaining % ≤ 80%) | B (80%< substrate protein remaining %≤ 100%) | B (80%< substrate protein remaining %≤ 100%) | B (80%< substrate protein remaining %≤ 100%) | A (0% ≤ substrate protein remaining % ≤ 80%) | 60 to 80% | 80 to 100% | – | – | – | – | – | – | –
